One data set has as its system aurora kinase. Conditions: aurora kinase isoform selectivity, Choudary et al. 2015; cited from earlier work.
In data set [1] the test system is Jeko-1 mantle cell lymphoma, SU-DHL-4 B cell lymphoma, and Jurkat T cell lymphoma cells. The data set can be described thus: Annexin V / propidium iodide flow cytometry apoptosis assay. Conditions: 72 hours; 3 μM Compound B, 0.01 or 0.03 μM alisertib, alone or combined; single-agent effect in some cell lines only. Type of data set: cell-based. Here is the method:
To test for induction of apoptosis, Jeko-1 mantle cell lymphoma, SU-DHL-4 B cell lymphoma, and Jurkat T cell lymphoma cells were treated for 72 hours with either: DMSO, 3 μM of Compound B, 0.01 μM of alisertib, 0.03 μM of alisertib, or a combination of both Compound B and alisertib for 72 hrs. Cells were then harvested and stained with Annexin V, which recognizes an epitope on cells in the early stages of apoptosis. Cells were also stained with propidium iodide, which is excluded from cells with intact membranes, thus marking only dead cells. Flow cytometry analysis was then performed to measure the number of healthy and apoptotic cells under each treatment condition.

Data set [2] relates to Jurkat T cell lymphoma cells. The description is as above. It is filed as cell-based. Conditions: 72 hours, 3 μM Compound A or B, 0.01 μM alisertib, alone or combined. As for the experimental part: To determine the extent that the combination therapies of Compound A/alisertib and Compound B/alisertib promote induction of apoptosis, Jurkat T cell lymphoma cells were treated with: DMSO, 3 μM of Compound B, 3 μM of Compound A, 0.01 μM of alisertib, a combination of Compound B/alisertib, or a combination of Compound A/alisertib, for 72 hours. Cells were then harvested and stained with Annexin V and propidium iodide as above. Flow cytometry analysis was then used to measure the number of healthy and apoptotic cells under each treatment condition.

Data set [3] concerns survivin, Aurora A, Aurora B, BubR1, CDC20 and MAD2L1 gene transcripts in H929 multiple myeloma cells. The data set can be described thus: Microarray gene expression profiling of H929 cells. To be noted: H929 cells, 2, 3, or 4 μM, 24 hours or 48 hours, Affymetrix microarray. It is filed as cell-based. As for the experimental part: Microarray gene expression profiling was performed in H929 multiple myeloma (MM) cells to determine whether key mitotic regulators are down regulated by […]. H929 multiple myeloma cells were treated for 24 hours or 48 hours with 2, 3, or 4 μM of Compound A. Total RNA was extracted from the cells and subjected to gene expression profiling using an Affymetrix microarray system (Santa Clara, Calif.).

For data set [4], the system named is survivin, Aurora A, Aurora B, BubR1, CDC20 and MAD2L1 gene transcripts in H929 MM, U266 MM and Jeko-1 MCL cell lines. Kind of data set: qPCR analysis of mitotic regulator downregulation across MM and MCL cell lines. It is filed as cell-based. Conditions: U266 MM and Jeko-1 MCL cells. Here is the method:
Independent qPCR validation of mitotic regulator downregulation by Compound A across MM and MCL cell lines was performed using H929 MM, U266 MM and Jeko-1 MCL cell lines. The cells were treated with Compound A. Total RNA was extracted and gene expression was measured by quantitative polymerase chain reaction (PCR) analysis.
A general note: In qPCR the cycle at which signal appears reflects the starting amount.

`O=C(Nc1c[nH]nc1-c1nc2cc(CN3CCOCC3)ccc2[nH]1)NC1CC1` [AT-9283]: the Selectivity entry with aurora kinase was “Aurora A and Aurora B”.
`COc1cc(Nc2ncc3c(n2)-c2ccc(Cl)cc2C(c2c(F)cccc2OC)=NC3)ccc1C(=O)O` [Alisertib]: the results for the “percentage of cells undergoing apoptosis” value in data set [1] and in data set [2] were “some induction of apoptosis” and “minimal induction of apoptosis”, respectively. Besides, the Selectivity entry in the data set with aurora kinase is reported as “Aurora A”.
For `CCN(CCCOc1ccc2c(Nc3cc(CC(=O)Nc4cccc(F)c4)[nH]n3)ncnc2c1)CCOP(=O)(O)O` [Barasertib], in the data set on aurora kinase, the Selectivity entry is on record as “Aurora B”.
With `O=C(CCCCCCNC(=O)c1cnc(N(c2ccccc2)c2ccccc2)nc1)NO` [Compound A, 2-(diphenylamino)-N-(7-(hydroxyamino)-7-oxoheptyl)pyrimidine-5-carboxamide], the “expression of key mitotic regulatory genes (relative fold induction vs DMSO)” value in data set [3] was “reduced the expression”. Further, in data set [4], the “expression of key mitotic regulatory genes (relative to RPLP1, vs DMSO)” value is recorded as “reduced the expression”. The “percentage of cells undergoing apoptosis” value in data set [2] is given as “minimal induction of apoptosis”.
On to `O=C(CCCCCCNC(=O)c1cnc(N(c2ccccc2)c2ccccc2Cl)nc1)NO` [Compound B, 2-((2-chlorophenyl)(phenyl)amino)-N-(7-(hydroxyamino)-7-oxoheptyl)pyrimidine-5-carboxamide], for which the “percentage of cells undergoing apoptosis” value is listed as “some induction of apoptosis” in data set [1] and “minimal induction of apoptosis” in data set [2].
For the compound `CO[C@@H](C(=O)N1Cc2[nH]nc(NC(=O)c3ccc(N4CCN(C)CC4)cc3)c2C1)c1ccccc1` [Danusertib], the Selectivity entry with aurora kinase is “Pan”.
Turning to `Cc1cc(Nc2cc(N3CCN(C)CC3)nc(/C=C/c3ccccc3)n2)n[nH]1` [ENMD- 2076], the Selectivity entry in the data set on aurora kinase is on record as “Aurora A”.
Regarding `O=C(O)[C@]1(Cc2cccc(Nc3nccs3)n2)CC[C@@H](Oc2cccc(Cl)c2F)CC1` [MK-5108], the Selectivity result with aurora kinase is given as “Aurora A”.
For the compound `Cc1cc(Nc2ncc(F)c(N[C@H]3[C@@H](C(N)=O)[C@@H]4C=C[C@H]3C4)n2)ccc1N1CCN(C)CC1` [MSC 1992371A], the Selectivity result in the data set with aurora kinase was “Pan”.
Turning to `Cc1cc(Nc2cc(N3CCN(C)CC3)nc(Sc3ccc(NC(=O)C4CC4)cc3)n2)[nH]n1` [Tozasertib], in the data set with aurora kinase, the Selectivity result is recorded as “Pan”.

The values above are taken from patent publication US11357776B2, “Pharmaceutical combinations comprising a histone deacetylase inhibitor and an aurora kinase inhibitor and methods of use thereof” (ACETYLON PHARMACEUTICALS, INC., priority 2016, dated 2022).
